The values that follow come from patent US20220251036A1, “DIFLUOROHALOALLYLAMINE SULFONE DERIVATIVE INHIBITORS OF LYSYL OXIDASES, METHODS OF PREPARATION, AND USES THEREOF” (PHARMAXIS LTD., priority 2019, published 2022).

pIC50: −log10 of the molar value. Like-named read-outs stand apart in the source and are kept apart here.

Assay type in all cases: biochemical
One test concerns the target T1, Human recombinant LOXL1 (Homo sapiens, UniProt Q08397).
T1 sequence (Q08397 96-574): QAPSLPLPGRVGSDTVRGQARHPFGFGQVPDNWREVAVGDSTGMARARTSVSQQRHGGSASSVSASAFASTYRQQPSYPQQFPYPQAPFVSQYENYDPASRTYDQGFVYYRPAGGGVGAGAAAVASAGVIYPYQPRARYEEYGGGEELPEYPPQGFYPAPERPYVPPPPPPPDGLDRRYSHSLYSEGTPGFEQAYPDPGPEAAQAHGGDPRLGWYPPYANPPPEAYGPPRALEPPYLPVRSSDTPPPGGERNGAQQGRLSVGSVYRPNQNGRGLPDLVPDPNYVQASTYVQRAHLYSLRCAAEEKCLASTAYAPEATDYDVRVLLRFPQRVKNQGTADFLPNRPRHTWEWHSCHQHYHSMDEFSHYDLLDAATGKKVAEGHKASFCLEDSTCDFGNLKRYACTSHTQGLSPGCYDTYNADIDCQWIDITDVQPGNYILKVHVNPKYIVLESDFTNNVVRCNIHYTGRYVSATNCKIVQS
The test is described as follows: LOXL1 inhibition, Amplex Red oxidation assay. On the procedure: (§1) LOX and LOXL protein family members can be acquired as recombinant active proteins from commercial sources, or extracted from animal tissues like bovine aorta, tendons, pig skin; or prepared from cell cultures. […] The assay was developed using either 384 or 96 well format. Briefly, in a standard black, clear bottom 384 well plate assay 25 μL of a dilution of any of the isoenzymes and orthologues in 1.2 M urea, 50 mM sodium borate buffer (pH 8.2) were added into each well in the presence of 1 μM mofegiline and 0.5 mM pargyline (to inhibit SSAO and MAO-B and MAO-A, respectively; not necessary if the enzyme is from a recombinant or purified form). Test compounds were dissolved in DMSO and tested in a Concentration Response Curve (CRC) with 11 data points, typically in the micromolar or nanomolar range after incubation with the enzyme for 30 min at 37° C. 25 μL of a reaction mixture containing twice the KM concentration of putrescine (Sigma Aldrich, e.g. 20 mM for LOX and LOXL1 or 10 mM for LOXL2 and 4 mM for LOXL3 and LOXL4), 120 μM Amplex Red (Sigma Aldrich) and 1.5 U/mL horseradish peroxidase (Sigma Aldrich) prepared in 1.2 M urea, 50 mM sodium borate buffer (pH 8.2) were then added to the corresponding wells. The above volumes were doubled in the case of 96 wells plate. The fluorescence (RFU) was read every 2.5 min for 30 min at […] 37° C., excitation 565 nm and emission 590 (Optima; BMG labtech). The slope of the kinetics for each well was calculated using MARS data analysis software (BMG labtech) and this value was used to deduce the IC50 value (Dotmatics). The ability of the inventive compounds to inhibit the amine oxidase activity of LOX and other family members is shown in Table 4.

The next test has as its target T2, Human recombinant LOXL3 (Homo sapiens, UniProt P58215).
T2 sequence (P58215 26-753): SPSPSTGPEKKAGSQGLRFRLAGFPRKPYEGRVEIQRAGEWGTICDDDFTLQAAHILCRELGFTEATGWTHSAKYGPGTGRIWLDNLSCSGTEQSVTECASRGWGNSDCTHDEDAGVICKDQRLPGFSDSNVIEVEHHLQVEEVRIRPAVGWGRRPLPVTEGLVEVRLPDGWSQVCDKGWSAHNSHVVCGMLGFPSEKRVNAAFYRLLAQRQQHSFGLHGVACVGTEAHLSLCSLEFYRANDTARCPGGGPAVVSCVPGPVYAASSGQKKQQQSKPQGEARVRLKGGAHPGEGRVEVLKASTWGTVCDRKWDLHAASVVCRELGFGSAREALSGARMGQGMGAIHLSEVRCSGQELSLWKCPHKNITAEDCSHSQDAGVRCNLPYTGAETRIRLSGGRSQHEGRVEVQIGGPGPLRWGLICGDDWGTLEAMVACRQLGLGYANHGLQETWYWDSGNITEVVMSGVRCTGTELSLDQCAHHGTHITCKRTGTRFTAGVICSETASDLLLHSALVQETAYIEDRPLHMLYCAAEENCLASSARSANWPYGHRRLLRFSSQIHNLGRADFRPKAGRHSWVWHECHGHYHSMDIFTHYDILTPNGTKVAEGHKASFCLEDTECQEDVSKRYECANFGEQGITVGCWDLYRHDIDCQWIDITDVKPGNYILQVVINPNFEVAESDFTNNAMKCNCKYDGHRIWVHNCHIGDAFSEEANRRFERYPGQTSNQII
The test is described as follows: LOXL3 inhibition, Amplex Red oxidation assay. On the procedure: as §1

In another test the target is T3, Human recombinant LOXL2 (Homo sapiens, UniProt Q9Y4K0).
T3 sequence (Q9Y4K0 26-774): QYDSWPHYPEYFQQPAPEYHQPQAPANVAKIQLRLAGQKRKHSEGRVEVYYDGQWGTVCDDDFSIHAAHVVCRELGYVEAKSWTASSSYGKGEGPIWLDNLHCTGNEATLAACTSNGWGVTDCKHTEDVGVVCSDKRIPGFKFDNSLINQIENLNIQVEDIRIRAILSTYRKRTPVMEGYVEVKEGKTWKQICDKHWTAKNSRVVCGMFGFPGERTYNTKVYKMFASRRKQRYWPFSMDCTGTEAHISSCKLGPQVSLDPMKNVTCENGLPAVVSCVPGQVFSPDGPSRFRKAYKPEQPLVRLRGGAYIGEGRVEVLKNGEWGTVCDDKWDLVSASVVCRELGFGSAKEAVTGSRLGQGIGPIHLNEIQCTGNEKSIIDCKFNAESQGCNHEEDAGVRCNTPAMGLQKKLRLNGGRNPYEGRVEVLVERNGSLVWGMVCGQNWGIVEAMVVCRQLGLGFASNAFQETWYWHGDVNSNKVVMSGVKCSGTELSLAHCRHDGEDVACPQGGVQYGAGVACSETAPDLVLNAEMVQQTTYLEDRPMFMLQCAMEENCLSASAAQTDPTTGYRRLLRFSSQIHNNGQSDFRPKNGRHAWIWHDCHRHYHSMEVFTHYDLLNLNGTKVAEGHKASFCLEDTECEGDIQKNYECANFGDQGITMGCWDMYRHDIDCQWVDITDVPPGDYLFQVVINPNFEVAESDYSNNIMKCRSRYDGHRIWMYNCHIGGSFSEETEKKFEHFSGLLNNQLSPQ
The experiment in a line: LOXL2 inhibition, Amplex Red oxidation assay. On the procedure: as §1

The mark [1] stands for this setting: incubation with enzyme 30 min at 37° C, read-out: Human recombinant LOXL1 Activity IC50.
Setting [2] is: incubation with enzyme 30 min at 37° C, read-out: Human recombinant LOXL3 Activity IC50.
[3] abbreviates: incubation with enzyme 30 min at 37° C, read-out: Human recombinant LOXL2 Activity IC50.

On to `N#CCCN` [BAPN, β-aminopropionitrile, reference compound], for which the pIC50 at Human recombinant LOXL1 (setting [1]) is 5.60; at Human recombinant LOXL3 (setting [2]), 6.30; at Human recombinant LOXL2 (setting [3]) it was 6.40.
For `NC/C=C(\F)C(F)(F)S(=O)(=O)c1ccccc1` [Compound 1, (Z)-3,4,4-trifluoro-4-(phenylsulfonyl)but-2-en-1-amine], the pIC50 on Human recombinant LOXL1 is 5.47; on Human recombinant LOXL3 it was 5.82; at Human recombinant LOXL2 it was 6.40.
In the case of `NC/C=C(\F)C(F)(F)S(=O)(=O)c1cccc2cccnc12` [Compound 2, (Z)-3,4,4-trifluoro-4-(quinolin-8-ylsulfonyl)but-2-en-1-amine], the pIC50 on Human recombinant LOXL1 (setting [1]) is 4.87; on Human recombinant LOXL3 (setting [2]) it was 4.79; at Human recombinant LOXL2 (setting [3]), 5.74.
The like results for `CNc1ccccc1S(=O)(=O)C(F)(F)/C(F)=C/CN` [Compound 4, (Z)-2-((4-amino-1,1,2-trifluorobut-2-en-yl)sulfony1)-N-methylaniline] were, in that order, 5.32, 5.13 and 6.00.
Take `Cc1ccccc1S(=O)(=O)C(F)(F)/C(F)=C/CN` [Compound 5, (Z)-3,4,4-trifluoro-4-(o-tolylsulfonyl)but-2-en-1-amine]: the pIC50 at Human recombinant LOXL2 (setting [3]) was 6.30.
On to `Cc1ccc(S(=O)(=O)C(F)(F)/C(F)=C/CN)cc1` [Compound 6, (Z)-3,4,4-trifluoro-4-tosylbut-2-en-1-amine], for which the pIC50 is 5.29 at Human recombinant LOXL1 (setting [1]), 5.74 on Human recombinant LOXL3 (setting [2]) and 6.30 on Human recombinant LOXL2 (setting [3]).
Take `NC/C=C(\F)C(F)(F)S(=O)(=O)Cc1ccccc1` [Compound 8, (Z)-4-(benzylsulfony1)-3,4,4-trifluorobut-2-en-1-amine]: the pIC50 was 5.51 on Human recombinant LOXL1 (setting [1]), 6.00 at Human recombinant LOXL3 (setting [2]) and 6.52 at Human recombinant LOXL2 (setting [3]).
In the same order, the values of `NC/C=C(\F)C(F)(F)[S+]([O-])c1ccccc1` (stereo not shown) [Compound 9, (Z)-3,4,4-trifluoro-4-(phenylsulfinyl)but-2-en-1-amine] are 5.06, 5.28 and 5.85.
The like results for `CS(=O)(=O)c1ccc(COc2ccccc2S(=O)(=O)C(F)(F)/C(F)=C/CN)cc1` [Compound 10, (Z)-3,4,4-trifluoro-4-((2-((4-(methylsulfonyl)benzyl)oxy)phenyl)sulfonyl) but-2-en-1-amine] were, in that order, 5.70, 5.82 and 7.00.
As for `COc1cccc(S(=O)(=O)C(F)(F)/C(F)=C/CN)c1` [Compound 12, (Z)-3,4,4-trifluoro-4-((3-methoxyphenyl)sulfonyl)but-2-en-1-amine], the pIC50 at Human recombinant LOXL1 (setting [1]) is 5.13; on Human recombinant LOXL3 (setting [2]) it was 5.57; on Human recombinant LOXL2 (setting [3]) it was 6.22.
As to `NC/C=C(\F)C(F)(F)S(=O)(=O)c1cccs1` [Compound 14, (Z)-3,4,4-trifluoro-4-(thiophen-2-ylsulfonyl)but-2-en-1-amine], the pIC50 on Human recombinant LOXL1 (setting [1]) was 5.15; at Human recombinant LOXL3 (setting [2]) it was 5.92; at Human recombinant LOXL2 (setting [3]), 6.52.
Regarding `CS(=O)(=O)c1cccc(CS(=O)(=O)C(F)(F)/C(F)=C/CN)c1` [Compound 17, (Z)-3,4,4-trifluoro-4-((3-(methylsulfonyl)benzyl)sulfonyl)but-2-en-1-amine], the values for the pIC50 on Human recombinant LOXL1 (setting [1]), at Human recombinant LOXL3 (setting [2]) and at Human recombinant LOXL2 (setting [3]) were 5.34, 6.10 and 6.40, respectively.
For `NC/C=C(\F)C(F)(F)S(=O)(=O)C1CCCC1` [Compound 19, (Z)-4-(cyclopentylsulfony1)-3,4,4-trifluorobut-2-en-1-amine], the pIC50 is 5.37 at Human recombinant LOXL1 (setting [1]), 5.89 on Human recombinant LOXL3 (setting [2]) and 6.30 on Human recombinant LOXL2 (setting [3]).

In general, pIC50 refers to the negative decadic logarithm of the IC50, by convention in mol/L.
